Source: paper PMC12232376, “A Lysozyme-Derived Peptide Induces GLP‑1 Secretion in Mouse Jejunal Organoids and Modulates Glycemia in Rats” (Journal of Agricultural and Food Chemistry, 2025)
Where no end group is shown, it is not given here.

Experiments:
CCK gene expression [1] = assay: Relative CCK gene expression in STC-1 cells (qPCR); type: cell-based; conditions: 60 min, Phe 20 mM
Procedure: (§1) Cells were cultured at 37 °C, 5% CO2, and a humidified atmosphere for 48 h into 24-well plates at a density of 3 × 10^5 cells per well.
(§2) For RNA isolation, frozen STC-1 cells or organoids were homogenized in QIAzol, and total RNA was isolated using the miRNeasy Mini Kit (Qiagen, Hilden, Germany). Total RNA was quantified in a NanoDrop 2000 spectrophotometer (Thermo Scientific, MA, USA). According to the instructions, total RNA was reverse transcribed to cDNA using a Script II RT Kit (Qiagen, Hilden, Germany). RNA expression levels were determined in duplicate by quantitative real-time PCR (qPCR) on a 7900HT Real-Time PCR System (Applied Biosystems), using miScript SYBR Green PCR Kits (Qiagen, Hilden, Germany).
(§3) Amplification was initiated at 50 °C for 2 min and at 95 °C for 10 min, followed by 40 cycles of 95 °C for 15 s and 60 °C for 1 min. The following specific oligonucleotides were used: for cholecystokinin (CCK) forward (F) 5′-[…]-3′ and reverse (R) 5′-[…]-3′; for GLP-1 (F) 5′-[…]-3′ and (R) 5′-[…]-3′; for peptide YY (PYY) (F) 5′-[…]-3′ and (R) 5′-[…]-3′; and for reference gene β-actin (F) 5′-[…]-3′ and (R) 5′-[…]-3′. The relative expression levels of the target gene were calculated using the comparative critical threshold method (2^–ΔΔCt), by normalizing the data to the expression of β-actin.

p-IRS = assay: Immunoblotting p-IRS/IRS in STC-1 cells; type: cell-based; conditions: peptide 1 mM, EWD 2 mg/mL, Phe 20 mM, 5, 15, 30, 60 min, immunoblot
Procedure: […]; then, cells were lysed with RIPA buffer, and ERK1/2, p-ERK1/2, AMPK, p-AMPK, p-IRS-1, IRS-1, glyceraldehyde-3-phosphate dehydrogenase (GAPDH), and heat shock protein (HSP90) contents were examined using immunoblotting. Protein samples were lysed, separated on 10% SDS-polyacrylamide gels, and the separated proteins were electroblotted from the gel onto nitrocellulose membranes ([…], Millipore, MA, USA) and blocked with skim milk for 30 min at room temperature. Membranes were incubated with primary antibodies overnight at 4 °C. After incubation, membranes were exposed to secondary antibodies for 45 min at room temperature. Blots were rinsed three times with Tris-buffered saline with Tween 20, pH 8.0, after each incubation step and visualized using an Odyssey infrared imaging system (LI-COR, Lincoln, NE, USA).

mouse jejunal organoids = assay: GLP-1 secretion in mouse jejunal organoids (GLP-1 Active ELISA of supernatants); type: cell-based; conditions: Phe 20 mM, peptide 1 mM, n = 3
Procedure: Mouse intestinal organoids (enteroids) were derived from adult intestinal stem cells (ISCs). Intestinal crypts were isolated from the jejunum of male and female wild-type mice following the protocol provided by STEMCELL Technologies. Crypts were cultured at 37 °C until organoids were fully developed (5–7 days). Intestinal organoids were suspended in 10 mL of cold DMEM/F12 (Lonza, Basel, Switzerland), and the crypts were suspended in a mixture (50:50) of Matrigel (Corning, NY, USA) and complete IntestiCult Organoid Growth Medium (STEMCELL Technologies, Vancouver, Canada). This mix was gently placed in the center of each well of a prewarmed 24-well plate until the Matrigel solidified and formed a dome. IntestiCult Organoid Growth Medium (STEMCELL Technologies, Vancouver, Canada) was added, and crypts were cultured at 37 °C and 5% CO2 until organoids were developed. After 7 days, the mouse intestinal organoids were passed following the STEMCELL Technologies protocol. The experiments were performed from passage numbers 1 to 6.
(§4) After hormonal secretion studies, GLP-1_7–36NH2 was measured in the supernatants of cells or organoids in duplicate with the commercial immunoassay Glucagon-Like Peptide-1 Active ELISA (Merck KGaA, Darmstadt, Germany), according to the manufacturer’s instructions.

[2] = system: proglucagon gene expression; assay: Relative proglucagon gene expression in organoids (qPCR); type: cell-based, mouse; conditions: 10 min, Phe 20 mM, 2^-ΔΔCt normalised to β-actin, versus control
Procedure: as §2, §3

PYY gene expression [3] = assay: Relative PYY gene expression in organoids (qPCR); type: cell-based, mouse; conditions: organoids, 10, 30, 60 min; EWD 2 mg/mL, Phe 20 mM, peptide 1 mM
Procedure: as §2, §3

PYY gene expression [4] = assay: Relative PYY gene expression in STC-1 cells (qPCR); type: cell-based; conditions: 60 min, Phe 20 mM
Procedure: as §1, §2, §3

STC-1 cells [5] = assay: GLP-1 secretion in STC-1 cells (GLP-1 Active ELISA of supernatants); type: cell-based; conditions: Phe 20 mM, peptide 1 mM, n = 3
Procedure: STC-1 cells supplied by ATCC (ATCC CRL-3254, Manassas, VA, USA) were cultured in Dulbecco’s Modified Eagle’s Medium (ATCC, Manassas, VA, USA) supplemented with 100 U/mL penicillin, 100 mg/L streptomycin, 0.25 μg/mL amphotericin (Lonza Group, Basel, Switzerland), and 10% fetal bovine serum (ATCC, Manassas, VA, USA). Cells were incubated at 37 °C in a 5% CO2 humidified atmosphere, and once they reached 80% confluence, they were trypsinized and seeded according to each cell study. The experiments were performed from passage numbers 31–35.
as §1, §4

CCK gene expression [6] = assay: Relative CCK gene expression in organoids (qPCR); type: cell-based, mouse; conditions: peptide 1 mM (induced at 60 min), Phe 20 mM (induced from 30 min), versus control
Procedure: as §2, §3

STC-1 cells [7] = conditions: earlier screening in STC-1; ref authors' previous study (number not given); cited from earlier work
Procedure: Later, other authors, using the enteroendocrine cell line STC-1, have related the GLP-1-inducing effect to peptides of molecular mass between […], and it was shown that peptides present a greater induc ... || There is little information about the structural features necessary to induce secretion by enteroendocrine cells of GLP-1. The organoid cellular media collected at 60 min were analyzed by HPLC–MS/MS in order to assess the possible proteolysis of the assayed peptides during the incubation. The small intestine brush border has different enzymes, oligopeptidases, lipases, and carbohydrases that contribute to nutrient hydrolysis and absorption. Other authors have described that enterocytes present in mouse intestinal organoids have mature brush borders, with the presence of their typical enzymes, ...

[8] = system: mouse intestinal organoids
Procedure: On the day of the experiment, the medium was discarded, and the Matrigel was removed with cold PBS. Next, the organoids were centrifuged for 3 min at 300 × g, the medium was discarded, and after three washes, the organoids were resuspended in saline buffer (20 mM HEPES 1 M, 1 mM glucose, 140 mM NaCl, 4.5 mM KCl, 1.2 mM CaCl2, 1.2 mM MgCl2, 0.1% BSA, pH 7.4). The organoids were incubated for 40 min at 37 °C in this buffer. These organoids were resuspended in a new saline buffer and transferred to 96-well plates at a 60 organoids per well-ratio. The samples (EWD at 2 mg/mL, Phe at 20 mM, and synthetic peptide at 1 mM) were diluted in saline buffer, added to the well, and assayed in triplicate. […] After 10, 30, and 60 min, the plate was centrifuged for 3 min at 300 × g, supernatants were collected, organoids were lysed with QIAzol (Qiagen, Hilden, Germany), and samples were stored at −80 °C for further analysis.
The percentage of each sequence was calculated relative to the total area in each sample.

For `N[C@@H](Cc1ccccc1)C(=O)O` [Phe, Phenylalanine], the CCK gene overexpression (CCK gene expression [1]) was 4 fold, the “p-IRS expression versus control, in words” value (p-IRS) was “p-IRS overexpression at all time points” and the “GLP-1 release in organoids versus control, in words” value (mouse jejunal organoids; 10, 30 and 60 min, EWD 2 mg/mL) was “faster GLP-1 induction was observed in the case of Phe (10 min)”. For the same molecule, the “GLP-1 release in organoids” value (mouse jejunal organoids; 60 min, 60 organoids per well in saline buffer pH 7.4, 37 °C, ELISA, mean ± SEM) was 43.7 ± 1 pM, the “Relative proglucagon gene expression” value [2] was 1.8 fold change and the “PYY gene expression versus control, in words” value (PYY gene expression [3]) was “an effect of both the peptide and Phe was observed at 10 min, with Phe keeping the increased expression at 30 min”. The PYY gene overexpression (PYY gene expression [4]) was 2 fold, the “GLP-1 release in STC-1 cells versus control, in words” value (STC-1 cells [5]; 10, 30 and 60 min, EWD 2 mg/mL) was “only reached significance after incubation with the peptide or Phe for 60 min” and the “GLP-1 induced in STC-1 cells” value (STC-1 cells [5]; HEPES buffer pH 7.4, time not printed at the place (60 min by b40), ELISA, mean ± SEM) was 416.6 ± 40.1 pM. For the same molecule, the “CCK gene expression, maximum fold change” value (CCK gene expression [6]) was 2.8 fold change.

For “IRGCRL [124IRGCRL129, hexapeptide, shorter form of 123WIRGCRL129 found in organoid supernatants]”, the “GLP-1 secretion in STC-1 cells, in words” value (STC-1 cells [7]) is listed as “induce GLP-1 in STC-1, although at lower levels than the tryptophan-containing precursor peptide”.

In the case of WARGCRL [WARGCRL], the “Susceptibility to peptidases in organoids, in words” value (from here on “Susceptibility to peptidases”) [8] is reported as “most susceptible sequences to the action of peptidases”.

With WIRACRL [WIRACRL] the “Susceptibility to peptidases” value [8] was “most susceptible sequences to the action of peptidases”.

For WIRGARL [WIRGARL], the “Susceptibility to peptidases” value [8] was “most susceptible sequences to the action of peptidases”.
